Here are results for 20 compounds from ChEMBL document CHEMBL3991601, “The target landscape of clinical kinase drugs” (Science, 2017).

Structures are written as SMILES. Calls of active or inactive are those of the source. On the calls: in the data inactive means no Kd found up to 30 µM.

The target of assay [1] is Serine/threonine-protein kinase 38-like (Homo sapiens, UniProt Q9Y2H1).
Assay [2] concerns the target Phosphatidylethanolamine-binding protein 1 (Homo sapiens, UniProt P30086).
The target of assay [3] is T1, Thyroid hormone receptor-associated protein 3 (Homo sapiens, UniProt Q9Y2W1).
T1 sequence (Q9Y2W1 whole entry): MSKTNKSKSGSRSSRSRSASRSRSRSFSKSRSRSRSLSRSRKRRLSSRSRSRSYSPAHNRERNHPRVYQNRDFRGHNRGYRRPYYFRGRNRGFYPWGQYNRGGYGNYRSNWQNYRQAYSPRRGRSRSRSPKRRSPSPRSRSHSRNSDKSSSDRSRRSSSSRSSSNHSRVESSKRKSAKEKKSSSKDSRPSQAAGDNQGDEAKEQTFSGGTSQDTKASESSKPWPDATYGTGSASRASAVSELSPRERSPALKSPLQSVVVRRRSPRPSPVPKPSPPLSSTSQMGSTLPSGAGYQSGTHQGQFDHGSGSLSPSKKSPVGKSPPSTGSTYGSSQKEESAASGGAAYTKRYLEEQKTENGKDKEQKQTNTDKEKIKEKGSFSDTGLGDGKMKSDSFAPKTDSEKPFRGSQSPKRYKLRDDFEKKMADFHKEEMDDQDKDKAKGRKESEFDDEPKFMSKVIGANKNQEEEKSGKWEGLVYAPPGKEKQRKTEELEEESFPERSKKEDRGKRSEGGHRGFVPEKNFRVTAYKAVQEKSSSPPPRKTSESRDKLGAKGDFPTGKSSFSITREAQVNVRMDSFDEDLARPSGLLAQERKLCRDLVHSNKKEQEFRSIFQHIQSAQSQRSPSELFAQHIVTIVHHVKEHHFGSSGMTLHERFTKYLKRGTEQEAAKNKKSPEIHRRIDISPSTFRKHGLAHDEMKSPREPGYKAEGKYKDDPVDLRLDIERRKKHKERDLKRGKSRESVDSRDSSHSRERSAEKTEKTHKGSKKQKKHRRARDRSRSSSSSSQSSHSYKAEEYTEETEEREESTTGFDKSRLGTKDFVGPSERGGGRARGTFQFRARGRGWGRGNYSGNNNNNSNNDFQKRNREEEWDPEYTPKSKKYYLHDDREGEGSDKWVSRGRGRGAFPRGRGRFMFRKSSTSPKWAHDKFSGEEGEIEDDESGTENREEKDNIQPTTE

A further assay deals with T2, UMP-CMP kinase (Homo sapiens, UniProt P30085).
T2 sequence (P30085 whole entry): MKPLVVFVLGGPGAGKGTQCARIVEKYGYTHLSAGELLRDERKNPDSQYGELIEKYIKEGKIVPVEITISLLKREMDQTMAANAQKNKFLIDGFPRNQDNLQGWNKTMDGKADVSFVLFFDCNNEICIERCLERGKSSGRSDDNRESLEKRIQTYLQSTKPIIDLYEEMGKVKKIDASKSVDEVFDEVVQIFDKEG

In assay [4] the target is Serine/threonine-protein kinase pim-2 (Homo sapiens, UniProt Q9P1W9).
Assay [5] addresses Serine/threonine-protein kinase PLK1 (Homo sapiens, UniProt P53350).
For assay [6], the target named is T3, Tyrosine-protein kinase Mer (Homo sapiens, UniProt Q12866).
T3 sequence (Q12866 whole entry): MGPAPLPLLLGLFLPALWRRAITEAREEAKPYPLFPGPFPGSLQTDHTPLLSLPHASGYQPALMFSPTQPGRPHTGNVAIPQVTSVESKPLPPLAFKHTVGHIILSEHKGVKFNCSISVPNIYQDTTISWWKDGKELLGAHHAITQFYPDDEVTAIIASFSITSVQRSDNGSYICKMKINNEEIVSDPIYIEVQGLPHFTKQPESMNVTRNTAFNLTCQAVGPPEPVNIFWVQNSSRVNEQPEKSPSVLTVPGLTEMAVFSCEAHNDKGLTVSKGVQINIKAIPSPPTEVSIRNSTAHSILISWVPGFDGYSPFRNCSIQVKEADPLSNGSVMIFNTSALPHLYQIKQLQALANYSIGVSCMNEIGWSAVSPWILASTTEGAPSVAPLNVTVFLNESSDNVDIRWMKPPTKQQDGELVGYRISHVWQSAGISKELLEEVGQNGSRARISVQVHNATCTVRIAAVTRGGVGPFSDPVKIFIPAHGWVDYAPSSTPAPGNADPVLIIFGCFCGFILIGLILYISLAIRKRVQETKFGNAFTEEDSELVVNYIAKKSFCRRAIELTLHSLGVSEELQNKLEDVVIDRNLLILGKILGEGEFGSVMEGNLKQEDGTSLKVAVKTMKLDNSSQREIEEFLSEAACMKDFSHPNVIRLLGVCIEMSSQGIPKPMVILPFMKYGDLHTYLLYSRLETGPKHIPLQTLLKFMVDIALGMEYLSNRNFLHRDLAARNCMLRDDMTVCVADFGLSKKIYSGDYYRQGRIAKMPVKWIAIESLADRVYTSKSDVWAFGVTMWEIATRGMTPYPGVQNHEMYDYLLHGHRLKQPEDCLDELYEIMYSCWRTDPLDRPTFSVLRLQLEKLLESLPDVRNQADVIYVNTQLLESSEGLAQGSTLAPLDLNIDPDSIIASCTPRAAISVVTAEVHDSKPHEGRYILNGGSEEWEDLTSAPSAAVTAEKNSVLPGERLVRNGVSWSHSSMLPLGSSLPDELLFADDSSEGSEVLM

Assay [7] deals with Serine/threonine-protein kinase 38 (Homo sapiens, UniProt Q15208).
In assay [8] the target is Eukaryotic peptide chain release factor GTP-binding subunit ERF3B (Homo sapiens, UniProt Q8IYD1).
For assay [9], the target named is Cyclin-dependent kinase 10 (Homo sapiens, UniProt Q15131).
The target of a further assay is Misshapen-like kinase 1 (Homo sapiens, UniProt Q8N4C8).
Misshapen-like kinase 1, sequence (Q8N4C8 whole entry): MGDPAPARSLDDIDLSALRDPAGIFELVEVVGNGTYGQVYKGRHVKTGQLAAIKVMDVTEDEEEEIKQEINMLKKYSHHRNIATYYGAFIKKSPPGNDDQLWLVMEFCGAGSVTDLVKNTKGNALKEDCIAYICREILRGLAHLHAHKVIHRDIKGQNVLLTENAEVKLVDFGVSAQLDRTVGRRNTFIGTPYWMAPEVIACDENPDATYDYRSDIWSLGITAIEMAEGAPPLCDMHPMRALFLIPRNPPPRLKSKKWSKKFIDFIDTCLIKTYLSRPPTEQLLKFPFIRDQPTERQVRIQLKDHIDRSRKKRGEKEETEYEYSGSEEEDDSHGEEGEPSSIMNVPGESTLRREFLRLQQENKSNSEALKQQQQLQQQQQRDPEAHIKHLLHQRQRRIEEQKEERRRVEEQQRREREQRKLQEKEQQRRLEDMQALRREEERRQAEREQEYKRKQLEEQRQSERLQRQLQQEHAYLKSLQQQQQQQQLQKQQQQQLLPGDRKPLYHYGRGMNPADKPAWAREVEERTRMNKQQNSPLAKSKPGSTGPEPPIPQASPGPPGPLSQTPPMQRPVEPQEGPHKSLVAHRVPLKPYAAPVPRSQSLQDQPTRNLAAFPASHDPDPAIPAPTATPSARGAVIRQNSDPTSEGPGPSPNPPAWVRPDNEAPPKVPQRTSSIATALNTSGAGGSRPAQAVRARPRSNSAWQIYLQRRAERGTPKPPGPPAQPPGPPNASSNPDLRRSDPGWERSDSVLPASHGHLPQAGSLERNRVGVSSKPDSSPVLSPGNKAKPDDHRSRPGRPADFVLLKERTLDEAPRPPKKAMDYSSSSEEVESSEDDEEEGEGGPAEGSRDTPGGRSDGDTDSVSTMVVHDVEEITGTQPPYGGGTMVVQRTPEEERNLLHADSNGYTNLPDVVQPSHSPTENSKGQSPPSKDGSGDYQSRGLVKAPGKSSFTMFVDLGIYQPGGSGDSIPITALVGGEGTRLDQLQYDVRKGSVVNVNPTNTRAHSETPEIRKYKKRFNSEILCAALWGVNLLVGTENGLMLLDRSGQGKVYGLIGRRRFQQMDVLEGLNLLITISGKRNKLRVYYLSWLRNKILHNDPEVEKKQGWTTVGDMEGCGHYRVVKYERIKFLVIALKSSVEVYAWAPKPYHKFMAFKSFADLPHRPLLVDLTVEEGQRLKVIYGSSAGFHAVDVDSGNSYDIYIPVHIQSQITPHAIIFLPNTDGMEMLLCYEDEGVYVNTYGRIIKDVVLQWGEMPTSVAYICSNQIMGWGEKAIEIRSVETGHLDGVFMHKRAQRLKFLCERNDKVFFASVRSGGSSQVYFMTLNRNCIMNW

Serine/threonine-protein kinase 38-like, sequence (Q9Y2H1 whole entry): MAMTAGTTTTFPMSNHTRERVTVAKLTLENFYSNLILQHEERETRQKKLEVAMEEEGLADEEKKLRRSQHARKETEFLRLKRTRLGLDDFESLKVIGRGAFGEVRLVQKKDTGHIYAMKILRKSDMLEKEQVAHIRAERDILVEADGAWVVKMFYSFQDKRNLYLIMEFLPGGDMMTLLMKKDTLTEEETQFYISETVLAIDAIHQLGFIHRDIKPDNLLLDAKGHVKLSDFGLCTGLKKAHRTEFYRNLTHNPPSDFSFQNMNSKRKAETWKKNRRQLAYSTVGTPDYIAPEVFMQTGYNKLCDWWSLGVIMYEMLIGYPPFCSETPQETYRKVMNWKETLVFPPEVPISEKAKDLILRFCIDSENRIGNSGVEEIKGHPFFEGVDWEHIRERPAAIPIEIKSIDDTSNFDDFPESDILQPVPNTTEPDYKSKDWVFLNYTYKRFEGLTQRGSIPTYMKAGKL
Serine/threonine-protein kinase PLK1, sequence (P53350 whole entry): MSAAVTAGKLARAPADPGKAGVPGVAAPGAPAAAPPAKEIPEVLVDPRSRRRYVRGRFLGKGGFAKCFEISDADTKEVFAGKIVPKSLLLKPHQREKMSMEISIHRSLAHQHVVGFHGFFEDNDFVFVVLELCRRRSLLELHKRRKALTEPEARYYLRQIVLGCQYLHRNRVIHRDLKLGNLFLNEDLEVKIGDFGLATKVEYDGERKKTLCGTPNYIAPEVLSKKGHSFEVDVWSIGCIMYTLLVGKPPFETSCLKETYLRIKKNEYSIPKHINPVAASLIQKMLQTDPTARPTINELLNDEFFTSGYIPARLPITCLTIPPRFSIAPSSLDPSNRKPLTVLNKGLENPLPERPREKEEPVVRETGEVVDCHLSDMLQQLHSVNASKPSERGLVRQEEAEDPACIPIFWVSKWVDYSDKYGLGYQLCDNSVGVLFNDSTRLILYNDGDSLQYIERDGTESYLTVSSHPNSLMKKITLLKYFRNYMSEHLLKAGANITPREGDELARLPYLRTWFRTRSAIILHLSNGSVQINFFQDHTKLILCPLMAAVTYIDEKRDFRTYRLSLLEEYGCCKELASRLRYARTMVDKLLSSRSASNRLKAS
Eukaryotic peptide chain release factor GTP-binding subunit ERF3B, sequence (Q8IYD1 whole entry): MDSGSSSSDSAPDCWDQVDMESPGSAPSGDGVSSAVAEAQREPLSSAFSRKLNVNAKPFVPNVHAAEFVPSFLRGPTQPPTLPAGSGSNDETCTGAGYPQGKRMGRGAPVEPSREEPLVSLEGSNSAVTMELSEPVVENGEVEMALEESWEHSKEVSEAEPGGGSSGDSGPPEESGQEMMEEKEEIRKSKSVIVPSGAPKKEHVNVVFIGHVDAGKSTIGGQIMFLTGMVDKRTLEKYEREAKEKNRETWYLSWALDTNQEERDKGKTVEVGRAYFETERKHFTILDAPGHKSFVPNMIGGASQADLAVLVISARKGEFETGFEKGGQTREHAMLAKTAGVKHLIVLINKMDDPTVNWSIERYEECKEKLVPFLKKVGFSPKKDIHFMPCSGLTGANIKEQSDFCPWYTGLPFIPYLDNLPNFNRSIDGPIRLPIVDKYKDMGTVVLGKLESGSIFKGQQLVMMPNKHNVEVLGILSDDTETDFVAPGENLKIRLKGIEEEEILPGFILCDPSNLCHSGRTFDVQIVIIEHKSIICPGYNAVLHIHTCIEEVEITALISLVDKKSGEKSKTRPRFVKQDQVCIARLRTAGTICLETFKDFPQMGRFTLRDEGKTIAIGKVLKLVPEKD
Serine/threonine-protein kinase 38, sequence (Q15208 whole entry): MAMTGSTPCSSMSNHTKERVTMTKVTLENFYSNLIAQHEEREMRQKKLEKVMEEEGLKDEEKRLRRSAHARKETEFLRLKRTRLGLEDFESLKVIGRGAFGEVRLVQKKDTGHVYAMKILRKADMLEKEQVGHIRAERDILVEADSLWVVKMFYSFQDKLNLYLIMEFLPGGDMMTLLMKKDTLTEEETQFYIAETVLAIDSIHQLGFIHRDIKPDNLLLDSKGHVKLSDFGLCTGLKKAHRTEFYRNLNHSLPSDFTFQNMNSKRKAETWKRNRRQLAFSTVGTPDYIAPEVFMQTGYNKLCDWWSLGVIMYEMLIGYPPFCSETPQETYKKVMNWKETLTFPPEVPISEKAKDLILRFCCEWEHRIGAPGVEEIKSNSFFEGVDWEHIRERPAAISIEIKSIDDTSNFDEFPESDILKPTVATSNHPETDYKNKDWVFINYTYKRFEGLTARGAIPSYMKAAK
Phosphatidylethanolamine-binding protein 1, sequence (P30086 whole entry): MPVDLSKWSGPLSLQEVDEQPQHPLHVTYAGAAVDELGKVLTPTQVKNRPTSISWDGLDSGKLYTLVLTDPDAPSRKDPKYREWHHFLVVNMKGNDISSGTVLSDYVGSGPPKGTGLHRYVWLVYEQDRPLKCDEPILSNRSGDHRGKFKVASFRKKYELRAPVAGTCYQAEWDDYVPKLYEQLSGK
Cyclin-dependent kinase 10, sequence (Q15131 whole entry): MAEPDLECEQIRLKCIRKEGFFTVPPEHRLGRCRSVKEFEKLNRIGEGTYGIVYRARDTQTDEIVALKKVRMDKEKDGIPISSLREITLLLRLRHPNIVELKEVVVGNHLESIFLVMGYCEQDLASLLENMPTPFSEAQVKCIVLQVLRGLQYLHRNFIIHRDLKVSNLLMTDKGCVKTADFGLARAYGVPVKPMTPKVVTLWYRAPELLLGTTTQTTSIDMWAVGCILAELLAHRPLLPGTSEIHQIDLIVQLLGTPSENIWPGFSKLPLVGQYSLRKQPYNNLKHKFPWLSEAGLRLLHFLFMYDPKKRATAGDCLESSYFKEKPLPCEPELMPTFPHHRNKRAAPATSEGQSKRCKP
Serine/threonine-protein kinase pim-2, sequence (Q9P1W9 whole entry): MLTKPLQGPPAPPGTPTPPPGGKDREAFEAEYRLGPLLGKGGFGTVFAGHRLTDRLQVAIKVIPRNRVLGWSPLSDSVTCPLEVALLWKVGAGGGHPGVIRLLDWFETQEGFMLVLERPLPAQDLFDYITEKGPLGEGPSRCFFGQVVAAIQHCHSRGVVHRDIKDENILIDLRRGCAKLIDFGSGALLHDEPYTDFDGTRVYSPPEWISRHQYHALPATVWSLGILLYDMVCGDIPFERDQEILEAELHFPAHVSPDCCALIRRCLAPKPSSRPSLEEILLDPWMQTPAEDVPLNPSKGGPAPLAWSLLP

In the case of `C=CCn1c(=O)c2cnc(Nc3ccc(N4CCN(C)CC4)cc3)nc2n1-c1cccc(C(C)(C)O)n1` [ADAVOSERTIB], the Kd (in assay [1]; in assay [2]; in [3]; on UMP-CMP kinase; in assay [4]; in [5]) was > 30 µM (inactive) throughout. For the same compound, the Kd in assay [6] and in assay [7] was > 30 µM (inactive) each time.

As for `COc1cc2nccc(Oc3ccc(NC(=O)C4(C(=O)Nc5ccc(F)cc5)CC4)cc3)c2cc1OC` [CABOZANTINIB], the Kd (in assay [8]; in assay [2]; in [3]; on UMP-CMP kinase; in assay [5]) was > 30 µM (inactive) in each case.

For `Cc1cc(Nc2nc(N[C@@H](C)c3ncc(F)cn3)ncc2Cl)n[nH]1` [AZD-1480], the Kd (in [8]; in assay [2]; in assay [9]; in [3]; at UMP-CMP kinase; in assay [4]) was > 30 µM (inactive) each time. The Kd – broadly, the constant that tells how readily two partners part at equilibrium – in [5] was > 30 µM (inactive).

Turning to `COc1cccc2cc(-c3nc([C@H]4CC[C@H](C(=O)O)CC4)n4ncnc(N)c34)[nH]c12` [OSI-027], the Kd (in assay [8]; in assay [2]; in assay [3]; on UMP-CMP kinase; in assay [4]) was > 30 µM (inactive) in each case.

`O=c1[nH]c([C@@H]2CCCN2)nc2c1oc1ccc(Cl)cc12`: the Kd in [1], in assay [2], in [4] and in [7] was > 30 µM (inactive) throughout.

Consider `CN1CCN(c2nc(C3=C(c4c[nH]c5ccccc45)C(=O)NC3=O)c3ccccc3n2)CC1` [SOTRASTAURIN], for which the Kd is > 30 µM (inactive) in [1]; 0.041 µM (active) on Misshapen-like kinase 1; > 30 µM (inactive) in assay [9]; > 30 µM (inactive) in [4]; > 30 µM (inactive) in assay [6].

As to `C[C@@H]1COC(Nc2ccc3ncnc(Nc4ccc(OCc5nccs5)c(Cl)c4)c3c2)=N1` [VARLITINIB], the Kd (in assay [1]; at Misshapen-like kinase 1; in assay [3]; in [4]; in assay [6]; in [7]) was > 30 µM (inactive) in each case.

Take `CN(C)C/C=C/C(=O)Nc1cc2c(Nc3ccc(F)c(Cl)c3)ncnc2cc1O[C@H]1CCOC1` [AFATINIB]: the Kd in assay [8], in [2] and in assay [3] was > 30 µM (inactive) throughout.

Regarding `Cn1c(=O)c(F)c(Nc2ccc(I)cc2F)c2c(=O)n(C[C@@H](O)CO)cnc21` [TAK-733], the Kd in assay [2], in assay [3], in assay [4] and in [7] was > 30 µM (inactive) in each case.

`COc1cc2ncnc3c2cc1OCCCCCN(C)Cc1ccc(Br)cc1N3` [JNJ-26483327]: the Kd in assay [2], in [3] and in assay [7] was > 30 µM (inactive) throughout.

As for `NC(=O)c1ccc(N(C(N)=O)c2c(F)cccc2F)nc1-c1ccc(F)cc1F` [VX-702], the Kd (in assay [1]; in [2]; in assay [3]; on UMP-CMP kinase; in [5]; in assay [7]) was > 30 µM (inactive) each time.

Consider `CC[C@@](C)(Nc1ccnc(-c2c[nH]c3ncccc23)n1)C(=O)NCC(F)(F)F` [DECERNOTINIB], for which, in assay [7], the Kd was > 30 µM (inactive).

As to `CC(C)(O)CC(=O)NCCn1ccc2ncnc(Nc3ccc(Oc4cccc(C(F)(F)F)c4)c(Cl)c3)c21` [TAK-285], the Kd in assay [2] and in assay [7] was > 30 µM (inactive) each time.

On to `COc1cc2ncnc(Nc3ccc(O)cc3)c2cc1OC` [WHI-P131], for which the Kd (in assay [2]; in assay [9]; in assay [3]; at UMP-CMP kinase; in assay [4]; in [5]) was > 30 µM (inactive) in each case. In addition, the Kd in [7] was > 30 µM (inactive).

As for `CC1(C)CNc2cc(NC(=O)c3cccnc3NCc3ccncc3)ccc21` [MOTESANIB], the Kd in assay [8] is 0.003 µM; in assay [2], > 30 µM (inactive); in [9], > 30 µM (inactive); on UMP-CMP kinase, > 30 µM (inactive).

For the compound `S=C(NCc1ccc2c(c1)OCO2)N1CCN(c2ncnc3c2oc2ccccc23)CC1` [AMUVATINIB], the Kd (on Misshapen-like kinase 1; in [2]; in [9]; in [3]; on UMP-CMP kinase; in [5]) was > 30 µM (inactive) in each case. Also, in assay [6], the Kd is > 30 µM (inactive).

In the case of `COc1cc(F)c(F)c(Nc2ccc(I)cc2F)c1NS(=O)(=O)C1(C[C@H](O)CO)CC1` [REFAMETINIB], the Kd (in assay [1]; at Misshapen-like kinase 1; in assay [2]; in assay [3]; in assay [7]) was > 30 µM (inactive) each time.

On to `Cc1ccc(C(=O)Nc2ccc(Oc3cc4cnn(C)c4cc3-c3cn[nH]c3)c(F)c2)c(=O)n1-c1ccc(F)cc1` [MERESTINIB], for which the Kd (in [1]; on Misshapen-like kinase 1; in assay [2]; in assay [9]; in assay [3]; at UMP-CMP kinase) was > 30 µM (inactive) each time. In addition, the Kd in assay [4] and in assay [5] was > 30 µM (inactive) throughout.

Turning to `CCc1nc(C(N)=O)c(Nc2ccc(N3CCC(N4CCN(C)CC4)CC3)c(OC)c2)nc1NC1CCOCC1` [GILTERITINIB], the Kd in assay [3] and in [7] was > 30 µM (inactive) in each case.

In the case of `C[C@]1(O)C[C@@H](c2nc(-c3ccc4ccc(-c5ccccc5)nc4c3)c3c(N)nccn32)C1` [LINSITINIB], the Kd (on Misshapen-like kinase 1; in assay [9]; in assay [3]; in assay [6]) was > 30 µM (inactive) in each case.
